Publication PMC6179041, “The insight of in vitro and in silico studies on cholinesterase inhibitors from the roots of Cimicifuga dahurica (Turcz.) Maxim” (Journal of Enzyme Inhibition and Medicinal Chemistry, 2018)
Entries after “also recorded” stand apart in the source; their conditions may differ. Where two headings read alike, the source gives them in different places.

Assays:
AChE = target: T1, AChE (Electrophorus electricus, UniProt O42275); assay: biochemical; format: biochemical; details: for inhibition at 100 µM: read-out: AChE inhibitory activity at 100 μM (%)
T1 construct: purchased Sigma-Aldrich C3389
T1 sequence (O42275 24-633): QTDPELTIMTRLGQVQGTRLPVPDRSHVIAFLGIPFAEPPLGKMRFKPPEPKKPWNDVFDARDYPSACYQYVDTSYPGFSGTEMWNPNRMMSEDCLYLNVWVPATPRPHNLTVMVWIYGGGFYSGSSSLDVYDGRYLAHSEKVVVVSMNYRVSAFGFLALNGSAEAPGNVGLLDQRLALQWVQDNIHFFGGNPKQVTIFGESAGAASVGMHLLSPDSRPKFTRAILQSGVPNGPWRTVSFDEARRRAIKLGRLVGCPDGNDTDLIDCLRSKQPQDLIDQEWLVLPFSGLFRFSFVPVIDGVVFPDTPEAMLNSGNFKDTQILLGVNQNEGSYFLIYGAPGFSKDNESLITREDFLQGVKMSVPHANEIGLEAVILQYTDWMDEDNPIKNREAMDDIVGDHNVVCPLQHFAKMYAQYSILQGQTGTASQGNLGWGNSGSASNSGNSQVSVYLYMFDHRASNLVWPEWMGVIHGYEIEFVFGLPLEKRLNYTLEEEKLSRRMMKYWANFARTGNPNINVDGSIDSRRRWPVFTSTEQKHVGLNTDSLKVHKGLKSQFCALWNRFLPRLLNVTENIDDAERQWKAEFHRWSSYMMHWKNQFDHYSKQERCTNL

BuChE = BuChE (Equus caballus, UniProt P81908); assay: biochemical; format: biochemical; details: for inhibition at 100 µM: read-out: BuChE inhibitory activity at 100 μM (%); for Binding mode (BuChE): Lineweaver-Burk plots
Sequence of BuChE (P81908 whole entry): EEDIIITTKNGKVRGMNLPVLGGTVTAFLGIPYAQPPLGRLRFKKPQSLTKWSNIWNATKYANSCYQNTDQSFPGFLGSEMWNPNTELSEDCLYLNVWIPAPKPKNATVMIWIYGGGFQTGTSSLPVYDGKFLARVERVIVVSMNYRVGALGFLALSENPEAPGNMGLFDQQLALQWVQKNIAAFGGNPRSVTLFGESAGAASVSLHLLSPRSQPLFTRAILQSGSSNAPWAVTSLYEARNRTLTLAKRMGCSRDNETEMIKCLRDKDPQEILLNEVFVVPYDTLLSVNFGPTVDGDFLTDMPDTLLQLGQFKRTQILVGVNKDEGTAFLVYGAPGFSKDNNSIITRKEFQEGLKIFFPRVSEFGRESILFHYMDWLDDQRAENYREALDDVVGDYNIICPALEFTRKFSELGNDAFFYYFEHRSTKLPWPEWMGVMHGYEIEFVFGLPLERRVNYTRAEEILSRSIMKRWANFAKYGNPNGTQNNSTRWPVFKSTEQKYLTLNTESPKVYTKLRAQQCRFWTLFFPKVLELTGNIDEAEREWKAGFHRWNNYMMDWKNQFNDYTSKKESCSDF

[1] = 100 μM compound, mean ± SEM, tested three times
[2] = mean ± SEM, tested three times, read-out: AChE IC50
[3] = mean ± SEM, tested three times, read-out: BuChE IC50
[4] = secondary replot, read-out: Ki (μM) on BuChE

Compound | inhibition at 100 µM (AChE) [%] | inhibition at 100 µM (BuChE) [%] | IC50 (BuChE) [µM] | also measured
CC1CC2OC3(OC2C(C)(C)O)C1C1(C)CCC24CC25CCC(O)C(C)(C)C5CC=C4C1(C)C3O (stereo not drawn) [Compound 10, 24-epi-7,8-didehydrocimigenol] | 31.8 ± 0.5 | 41.1 ± 2.2 |  | 
CC(=O)O[C@H]([C@H]1C[C@@H](C)[C@H]2[C@@](O)(O1)[C@H](O)[C@@]1(C)C3=CC[C@H]4C(C)(C)[C@@H](O)CC[C@@]45C[C@@]35CC[C@]21C)C(C)(C)O [Compound 12, 24-epi-24-O-acetyl-7,8-didehydroshengmanol] | 28 ± 4 | 18.6 ± 0.3 |  | 
CC(C)=CC=C1C(=O)N(C)c2ccccc21 [Compound 3, (E)-3‐(3′-methyl-2′-butenylidene)-1-methyl-2-indolinone] |  |  |  | inhibition at 100 µM (AChE; [1]): 53.8 ± 0.1%; IC50 (AChE; [2]): 95.8 ± 5.1 µM; inhibition at 100 µM (BuChE; [1]): 88.7 ± 1.3%; Binding mode (BuChE) (BuChE): noncompetitive mode; also recorded: Non-competitive type (BuChE); IC50 (BuChE; [3]): 13.8 ± 1.2 µM; Ki (BuChE; [4]): 4.9 ± 2.1 µM
COC(=O)/C=C/c1ccc(O)c(OC)c1 [Compound 2, ferulic acid methyl ester] |  |  |  | inhibition at 100 µM (AChE; [1]): 58 ± 0.6%; IC50 (AChE; [2]): 52.4 ± 3.7 µM; inhibition at 100 µM (BuChE; [1]): 62.3 ± 0.3%; IC50 (BuChE; [3]): 37.1 ± 1.5 µM
CC(=O)OC(C)(C)C1OC23OC1CC(C)C2C1(C)CCC24CC25CCC(OC2OCC(O)C(O)C2O)C(C)(C)C5CC=C4C1(C)C3O [Compound 14, 25-O-acetyl-7,8-didehydrocimigenol 3-O-β-D-xylopyranoside] | 24.9 ± 6.2 | 55 ± 0.7 | 22.6 ± 0.4 | Ki (BuChE): 10.7 ± 1.3 µM; Binding mode (BuChE) (BuChE): competing with substrate; also recorded: Competitive type (BuChE)
CC1CC2OC3(OC2C(C)(C)O)C1C1(C)CCC24CC25CCC(OC2OCC(O)C(O)C2O)C(C)(C)C5CC=C4C1(C)C3O [Compound 16, 24-epi-7,8-didehydrocimigenol 3-O-β-D-xylopyranoside] | 19 ± 2.5 | 62 ± 0.8 | 31 ± 5.5 | 
C=C(C)[C@H]1O[C@@]23O[C@@H]1C[C@@H](C)[C@@H]2[C@@]1(C)CC[C@@]24C[C@@]25CC[C@H](O)C(C)(C)[C@@H]5CC=C4[C@]1(C)[C@H]3O [Compound 13, 25-anhydrocimigenol] | 42.8 ± 0.8 | 44.9 ± 1.1 |  | 
C=C(C)C1OC23OC1CC(C)C2C1(C)CCC24CC25CCC(O)C(C)(C)C5CC=C4C1(C)C3O (stereo not shown) [Compound 9, 25-anhydro-7,8-didehydrocimigenol] | 48.6 ± 0.6 | 51 ± 1.9 | 35.1 ± 1.2 | 
CC(C)=CC=C1C(=O)Nc2ccccc21 [Compound 4, (E)-3‐(3′-methyl-2′-butenylidene)-2-indolinone] |  |  |  | inhibition at 100 µM (AChE; [1]): 61 ± 4.6%; IC50 (AChE; [2]): 48 ± 6.8 µM; inhibition at 100 µM (BuChE; [1]): 93.1 ± 0.6%; Binding mode (BuChE) (BuChE): noncompetitive mode; also recorded: Non-competitive type (BuChE); IC50 (BuChE; [3]): 6.5 ± 2.5 µM; Ki (BuChE; [4]): 3.5 ± 1.5 µM
CC(=O)O[C@@H]1C[C@@]23C[C@@]24CC[C@H](O)C(C)(C)[C@@H]4CC=C3[C@]2(C)C[C@@H]3O[C@]4(C[C@@H](C)[C@@H]3[C@@]12C)O[C@H](O)[C@@]1(C)O[C@@H]41 [Compound 7, 25-triepoxy-12β-acetoxy-3β,26-dihydroxy-9,19-cyclolanost-7-ene] | 52 ± 0.1 | 41 ± 0.1 |  | IC50 (AChE): 92.1 ± 2.2 µM
COc1ccc(/C=C/C(=O)OCC(=O)c2ccc(O)c(O)c2)cc1O [Compound 1, cimiciphenone] |  |  |  | inhibition at 100 µM (AChE; [1]): 65.4 ± 0.9%; Binding mode (AChE) (AChE; Lineweaver-Burk plots): competitive inhibitor; also recorded: Competitive type (AChE); IC50 (AChE; [2]): 16.7 ± 1.9 µM; Ki (AChE; secondary replot): 16.2 ± 0.9 µM; inhibition at 100 µM (BuChE; [1]): 13.6 ± 0.7%
CC(=O)OC(C)(C)[C@H]1O[C@@]23O[C@@H]1C[C@@H](C)[C@@H]2[C@@]1(C)CC[C@@]24C[C@@]25CC[C@H](O)C(C)(C)[C@@H]5CC[C@H]4[C@]1(C)[C@H]3O [Compound 11, 25-O-acetylcimigenol] | 15.8 ± 4.3 | 14 ± 2.6 |  | 
C=C(C)C1OC23OC1CC(C)C2C1(C)CCC24CC25CCC(OC2OCC(O)C(O)C2O)C(C)(C)C5CC=C4C1(C)C3O [Compound 19, 7,8-didehydro-25-anhydrocimigenol-3-O-β-D-xylopyranoside] | 21.5 ± 1.7 | 38.5 ± 0.1 |  | 
C=C(C)[C@H]1O[C@@]23O[C@@H]1C[C@@H](C)[C@@H]2[C@@]1(C)CC[C@@]24C[C@@]25CC[C@H](O[C@@H]2OC[C@@H](O)[C@H](O)[C@H]2O)C(C)(C)[C@@H]5CCC4[C@]1(C)[C@H]3O (stereo partly drawn) [Compound 15, 25-anhydrocimigenol-3-O-β-D-xylopyranoside] | 37.1 ± 0.5 | 60.7 ± 0.6 | 33.3 ± 5 | 
CC(=O)OC(C)(C)C1OC23OC1CC(C)C2C1(C)CCC24CC25CCC(O)C(C)(C)C5CC=C4C1(C)C3O (stereo not shown) [Compound 8, 25-O-acetyl-7,8-didehydrocimigenol] | 55.4 ± 2.6 | 18 ± 0.4 |  | IC50 (AChE): 69.5 ± 1.2 µM
C[C@@H]1C[C@H]2O[C@]3(O[C@@H]2C(C)(C)O)[C@H]1[C@@]1(C)CC[C@@]24C[C@@]25CC[C@H](O)C(C)(C)[C@@H]5CC=C4[C@]1(C)[C@H]3O [Compound 5, 7,8-didehydrocimigenol] | 43.1 ± 5.6 | 53.6 ± 0.9 | 60.9 ± 1.2 | 
CC(=O)O[C@@H]([C@H]1C[C@@H](C)[C@H]2[C@@](O)(O1)[C@H](O)[C@@]1(C)C3=CC[C@H]4C(C)(C)[C@@H](O)CC[C@@]45C[C@@]35CC[C@]21C)C(C)(C)O [Compound 6, 24-epi-24-O-acetyl-7,8-didehydroshengmanol] | 53.7 ± 1.6 | 57.3 ± 0.3 | 90.9 ± 6 | IC50 (AChE): 94.9 ± 3.5 µM
3-O-β-D-xylopyranosyl-24S,25-dihydroxy-15-oxo-acta-(16R,23R)-16,23-monoxoside [Compound 17] |  |  |  | AChE inhibitory activity at 100 μM (%) (AChE; [1]): 47.1 ± 1.6%; BuChE inhibitory activity at 100 μM (%) (BuChE; [1]): 55.4 ± 0.8%; IC50 (BuChE; [3]): 84.1 ± 5.7 µM
CC(=O)OC1C(OC2CCC34CC35CCC3(C)C6C(C)CC7OC6(OC7C(C)(C)O)C(O)C3(C)C5=CCC4C2(C)C)OCC(O)C1O (stereo not shown) [Compound 18, cimiricaside A] | 23.1 ± 6.8 | 54.4 ± 1.3 | 51 ± 0.5 | 
